According to article PMC11249646, “Small-Molecule Disruptors of the Interaction between Calcium- and Integrin-Binding Protein 1 and Integrin αIIbβ3 as Novel Antiplatelet Agents” (ACS Pharmacology & Translational Science, 2024):
Read-outs that look alike come from different tables or passages of the source. Where a SMILES comes first, the peptide text is derived from it. The star is where a group is joined. FITC = O=C1OC2(c3ccc(O)cc3Oc3cc(O)ccc32)c2ccc(NC(=S)*)cc21

How the values were obtained:
Format in all cases: binding
[1] = target: T1, GST-CIB1 : F-scrambled peptide (Homo sapiens, UniProt Q99828); assay: FP scrambled-peptide counter screen, 1536-well format; settings: scrambled-peptide counterscreen; for COUNTERSCREEN Confirm?: YES/NO call; for COUNTERSCREEN Curve Class: qHTS curve class
T1 construct: made in house; host or cells: BL-21 plus RIL cells (E. coli)
T1 sequence (Q99828 1-191): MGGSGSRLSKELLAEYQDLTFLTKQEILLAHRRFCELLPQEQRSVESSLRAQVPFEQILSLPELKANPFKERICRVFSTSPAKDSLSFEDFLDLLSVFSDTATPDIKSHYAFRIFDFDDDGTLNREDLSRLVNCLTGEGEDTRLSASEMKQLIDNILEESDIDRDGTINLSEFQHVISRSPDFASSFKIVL

[2] = target: T2, CIB1 and αIIb interaction (GST-CIB1 : F-αIIb peptide) (Homo sapiens, UniProt Q99828); assay: FP assay, 384-well format (screen); design: 384-well SCREEN Efficacy (%): concentration or dose not given beside the values; settings: for IC50: read-out: 384-well SCREEN IC50
T2 construct: made in house; host or cells: BL-21 plus RIL cells (E. coli)
T2 sequence (Q99828 1-191): T1 sequence (Q99828 1-191)

[3] = target: T1, GST-CIB1 : F-scrambled peptide; assay: FP scrambled-peptide counter screen, 384-well format; settings: for 384-well COUNTERSCREEN Confirm?: *: Curve in opposite direction; for IC50: read-out: 384-well COUNTERSCREEN IC50
[4] = target: T3, CIB1 and αIIb interaction (CIB1-GST : F-αIIb peptide) (Homo sapiens, UniProt Q99828); assay: FP assay, 1536-well qHTS format (primary and confirmatory screen); settings: for CONFIRMATORY SCREEN Confirm?: YES/NO call; for CONFIRMATORY SCREEN Curve Class: qHTS curve class
T3 construct: made in house; host or cells: BL-21 plus RIL cells (E. coli)
T3 sequence (Q99828 1-191): T1 sequence (Q99828 1-191)

[5] = confirmatory screen, negative sign = inhibitory curve
[6] = confirmatory screen, negative = inhibition
[7] = qHTS primary screen hits, Table S2, negative = inhibition
[8] = qHTS primary screen hits, Table S2, negative sign = inhibitory curve
[9] = qHTS primary screen hits, Table S2, read-out: IC50
[10] = confirmatory screen, read-out: CONFIRMATORY SCREEN IC50

Structure (SMILES)	COUNTERSCREEN Efficacy (%) [1]	COUNTERSCREEN Confirm? [1]	COUNTERSCREEN Curve Class [1]	384-well SCREEN Efficacy (%) ([2]; F-αIIb peptide)	384-well SCREEN Confirm? ([2]; F-αIIb peptide, YES/NO)	IC50 ([2]; F-αIIb peptide)	384-well COUNTERSCREEN Efficacy (%) ([3]; F-scrambled peptide)	IC50 ([3]; F-scrambled peptide)	CONFIRMATORY SCREEN Confirm? ([4]; confirmatory screen)	CONFIRMATORY SCREEN Curve Class [4, 5]	CONFIRMATORY SCREEN Efficacy (%) [4, 6]	Efficacy (%) [4, 7]	Curve Class [4, 8]	IC50 [4, 9]	IC50 [4, 10]	further results
Cc1ccc(S(=O)(=O)Nc2cnccc2C(=O)Nc2nc(-c3nc4ccccc4s3)cs2)cc1.O=C(O)C(F)(F)F [NCGC00343736-01]	-16%	YES	4	44%	YES	22.4 µM	23%	> 120 µM	YES	-1.1	-89%	-51%	-1.2	28.2 µM		384-well COUNTERSCREEN Confirm? ([3]; F-scrambled peptide): YES
COC(=O)C12C(=O)C(C)(O)C(=O)C1(C)C(C)=CC1C34CCC(OC3=O)C(C)(CO)C4CCC12C (centres unmarked) [NCGC00380147-01]	-27%	YES	4	80%	YES	32.8 µM	-50%	26.4 µM	YES	-2.2	-42%				17.8 µM	Efficacy (%) ([4]; qHTS FP screen hits, Table S2, negative = inhibition): -32%; Curve Class ([4]; qHTS FP screen hits, Table S2, one class per curve where COUNT > 1, negative sign = inhibitory curve): -2.2; IC50 ([4]; qHTS FP screen hits, Table S2, read-out: IC50): 28.2 µM
Cc1ccc(S(=O)(=O)Nc2cnccc2C(=O)Nc2nc3ccccc3s2)cc1.O=C(O)C(F)(F)F [NCGC00343897-01]	17%	YES	4	30%	YES	12.6 µM	16%	> 120 µM	YES	-1.4	-52%	-44%		31.6 µM	10 µM	384-well COUNTERSCREEN Confirm? ([3]; F-scrambled peptide): YES; Curve Class ([4]; qHTS primary screen hits, Table S2, negative sign = inhibitory curve, several classes where COUNT > 1): -1.2
Nc1c(S(=O)(=O)[O-])cc(Nc2ccc(Nc3nc(Cl)nc(Nc4ccc(S(=O)(=O)O)cc4)n3)c(S(=O)(=O)O)c2)c2c1C(=O)c1ccccc1C2=O.[Na+] [NCGC00162329-02]				60%	YES	1 µM	60%	1.3 µM				-64%	-1.2	1.4 µM		
CN(C)[C@@H]1CCN(c2cccc(Nc3nn4c(=O)c5ccccc5nc4s3)c2)C1.Cl [NCGC00189223-01]				48%	YES	15.8 µM	34%	14.1 µM								
O=[N+]([O-])c1ccc2c(c1)S(=O)(=O)C=C2 [NCGC00167848-02]						120 µM		> 120 µM						0.7 µM		384-well SCREEN Confirm? [2]: YES; 384-well SCREEN Efficacy (%) [2]: 50%; 384-well COUNTERSCREEN Efficacy (%) [3]: 45%; Curve Class [4]: -1.4; Efficacy (%) [4]: -37%
CSCC[C@H](NC(=O)[C@@H](NC(=O)[C@H](CCCCN)NC(=O)[C@@H](NC(=O)[C@H](Cc1ccccc1)NC(=O)[C@H](CC(C)C)NC(=O)[C@H](CCCCN)NC(=O)[C@H](CCCNC(=N)N)NC(C)=O)C(C)C)C(C)C)C(=O)N[C@@H](Cc1ccccc1)C(=O)N[C@@H](Cc1c[nH]c2ccccc12)C(=O)N[C@@H](CCCNC(=N)N)C(=O)N[C@@H](CC(C)C)C(=O)N[C@@H](CC(N)=O)C(=O)NCC(=O)N[C@@H](C)C(=O)N[C@@H](CCCCNC(=S)Nc1ccc2c(c1)C(=O)OC21c2ccc(O)cc2Oc2cc(O)ccc21)C(=O)O [F-scrambled, reference compound] (Ac-RKLFVKVMFWRLNGAK(FITC)-OH; C-terminus assumed)																affinity weaker compared to the native peptide ([3]; F-scrambled vs F-αIIb, 1.6 vs 0.2 μM): ~8 fold
CN1CCCN=C1/C=C/c1cccs1 [NCGC00094552-04]						> 120 µM		4.6 µM						24.1 µM	50.1 µM	
Cc1nc(/N=N\c2cc(S(=O)(=O)O)c3cc([N+](=O)[O-])cc(S(=O)(=O)O)c3c2)c(COP(=O)(O)O)c(C=O)c1O [NCGC00162294-03]						1.7 µM		3.3 µM						7.9 µM		
Cc1nc(N=Nc2cc(S(=O)(=O)O)c3cc([N+](=O)[O-])cc(S(=O)(=O)O)c3c2)c(COP(=O)(O)O)c(C=O)c1O (stereo in doubt) [NCGC00162294-03]				70%	YES		70%					-64%	-1.2			
